In patent US20230085307A1, “PYRIDAZINONE COMPOUND AND HERBICIDE” (NISSAN CHEMICAL CORPORATION, priority 2019, published 2023):

Columns and labels:
[1] = system: chickweed; assay: Test Example 4: herbicidal effect by soil treatment (Table 19, symbol P); format: in vivo, common chickweed (Stellaria media); conditions: 320 g/ha
Procedure, shortened: (§1)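 Herbicidal effect was rated 3 weeks after treatment, using the scoring criteria of an earlier test. The compound, formulated as an emulsion and diluted in water to a set herbicide amount, had been sprayed uniformly on soil over freshly sown seeds. Growth took place in a greenhouse at 25° C. to 30° C.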

[2] = system: oval-leafed pondweed; assay: Test Example 2: herbicidal activity, application during weed generation under submerged conditions (Table 17, symbol C); format: in vivo, oval-leafed pondweed (Monochoria vaginalis); conditions: AAH 320 g/ha; application during weed generation, submerged conditions
Procedure, shortened: (§2)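 Herbicide emulsion, diluted with water to the chosen amount, is applied onto 4 cm floodwater over alluvial soil where the weeds were co-sown and raised at 25–30° C. Application timing: 1–2 leaves. Assessment: three weeks afterwards.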

[3] = system: Italian ryegrass; assay: Test Example 4: herbicidal effect by soil treatment (Table 19, symbol K); format: in vivo, Italian ryegrass (Lolium multiflorum); conditions: 320 g/ha
Procedure, shortened: as §1

[4] = system: wild oat; assay: Test Example 5: herbicidal effect by foliage application, plastic box (Table 20, symbol I); format: in vivo, wild oat (Avena fatua); conditions: foliage application, 320 g/ha, evaluated three weeks after application
Procedure, shortened: (§3)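 Foliar spray test: emulsion formulation diluted in water to a set application rate, sprayed onto 14-day-old plants raised in diluvial soil at 25° C to 30° C under glass. Both herbicidal effect and crop effect rated visually three weeks later.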

[5] = system: Italian ryegrass; assay: Test Example 5: herbicidal effect by foliage application, plastic box (Table 20, symbol K); format: in vivo, Italian ryegrass (Lolium multiflorum); conditions: foliage application, 320 g/ha, evaluated three weeks after application
Procedure, shortened: as §3

[6] = system: southern crabgrass; assay: Test Example 4: herbicidal effect by soil treatment (Table 19, symbol F); format: in vivo, southern crabgrass (Digitaria ciliaris); conditions: 320 g/ha
Procedure, shortened: as §1

[7] = system: lambsquarters; assay: Test Example 4: herbicidal effect by soil treatment (Table 19, symbol O); format: in vivo, lambsquarters (Chenopodium album); conditions: 320 g/ha
Procedure, shortened: as §1

[8] = system: southern crabgrass; assay: Test Example 5: herbicidal effect by foliage application, plastic box (Table 20, symbol F); format: in vivo, southern crabgrass (Digitaria ciliaris); conditions: foliage application, 320 g/ha, evaluated three weeks after application
Procedure, shortened: as §3

[9] = system: persian speedwell; assay: Test Example 5: herbicidal effect by foliage application, plastic box (Table 20, symbol R); format: in vivo, Persian speedwell (Veronica persica); conditions: foliage application, 320 g/ha, evaluated three weeks after application
Procedure, shortened: as §3

[10] = system: green foxtail; assay: Test Example 5: herbicidal effect by foliage application, plastic box (Table 20, symbol G); format: in vivo, green foxtail (Setaria viridis); conditions: foliage application, 320 g/ha, evaluated three weeks after application
Procedure, shortened: as §3

[11] = system: Chinese sprangletop; assay: Test Example 3: herbicidal effect by foliage application, Wagner pot (Table 18, symbol D); format: in vivo, chinese sprangletop (Leptochloa chinensis); conditions: 320 g/ha
Procedure, shortened: (§4)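 Plants were sown in alluvial soil held under 0.1–0.5 cm standing water and grown 14 days in a greenhouse at 25–30 °C. An emulsifiable formulation, water-diluted to the set dose, was then sprayed onto the foliage, and effects were scored three weeks later using previously defined criteria.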

[12] = system: chickweed; assay: Test Example 5: herbicidal effect by foliage application, plastic box (Table 20, symbol P); format: in vivo, common chickweed (Stellaria media); conditions: foliage application, 320 g/ha, evaluated three weeks after application
Procedure, shortened: as §3

[13] = system: windgrass; assay: Test Example 5: herbicidal effect by foliage application, plastic box (Table 20, symbol L); format: in vivo, windgrass (Apera spica-venti); conditions: foliage application, 320 g/ha, evaluated three weeks after application
Procedure, shortened: as §3

[14] = system: blackgrass; assay: Test Example 5: herbicidal effect by foliage application, plastic box (Table 20, symbol J); format: in vivo, blackgrass (Alopecurus myosuroides); conditions: foliage application, 320 g/ha, evaluated three weeks after application
Procedure, shortened: as §3

[15] = system: redroot pigweed; assay: Test Example 5: herbicidal effect by foliage application, plastic box (Table 20, symbol N); format: in vivo, redroot pigweed (Amaranthus retroflexus); conditions: foliage application, 320 g/ha, evaluated three weeks after application
Procedure, shortened: as §3

[16] = system: Japanese bulrush; assay: Test Example 2: herbicidal activity, application during weed generation under submerged conditions (Table 17, symbol B); format: in vivo, Japanese bulrush (Schoenoplectus juncoides); conditions: AAH 320 g/ha; application during weed generation, submerged conditions
Procedure, shortened: as §2

[17] = system: false cleavers; assay: Test Example 5: herbicidal effect by foliage application, plastic box (Table 20, symbol Q); format: in vivo, false cleavers (Galium spurium); conditions: foliage application, 320 g/ha, evaluated three weeks after application
Procedure, shortened: as §3

[18] = system: barnyard grass; assay: Test Example 4: herbicidal effect by soil treatment (Table 19, symbol H); format: in vivo, barnyard grass (Echinochloa crus-galli); conditions: 320 g/ha
Procedure, shortened: as §1

[19] = system: velvetleaf; assay: Test Example 5: herbicidal effect by foliage application, plastic box (Table 20, symbol M); format: in vivo, velvetleaf (Abutilon theophrasti); conditions: foliage application, 320 g/ha, evaluated three weeks after application
Procedure, shortened: as §3

[20] = system: velvetleaf; assay: Test Example 4: herbicidal effect by soil treatment (Table 19, symbol M); format: in vivo, velvetleaf (Abutilon theophrasti); conditions: 320 g/ha
Procedure, shortened: as §1

[21] = system: green foxtail; assay: Test Example 4: herbicidal effect by soil treatment (Table 19, symbol G); format: in vivo, green foxtail (Setaria viridis); conditions: 320 g/ha
Procedure, shortened: as §1

[22] = system: windgrass; assay: Test Example 4: herbicidal effect by soil treatment (Table 19, symbol L); format: in vivo, windgrass (Apera spica-venti); conditions: 320 g/ha
Procedure, shortened: as §1

[23] = system: false cleavers; assay: Test Example 4: herbicidal effect by soil treatment (Table 19, symbol Q); format: in vivo, false cleavers (Galium spurium); conditions: 320 g/ha
Procedure, shortened: as §1

[24] = system: late watergrass; assay: Test Example 2: herbicidal activity, application during weed generation under submerged conditions (Table 17, symbol A); format: in vivo, late watergrass (Echinochloa oryzicola); conditions: AAH 320 g/ha; application during weed generation, submerged conditions
Procedure, shortened: as §2

[25] = system: barnyard grass; assay: Test Example 5: herbicidal effect by foliage application, plastic box (Table 20, symbol H); format: in vivo, barnyard grass (Echinochloa crus-galli); conditions: foliage application, 320 g/ha, evaluated three weeks after application
Procedure, shortened: as §3

[26] = system: blackgrass; assay: Test Example 4: herbicidal effect by soil treatment (Table 19, symbol J); format: in vivo, blackgrass (Alopecurus myosuroides); conditions: 320 g/ha
Procedure, shortened: as §1

[27] = system: redroot pigweed; assay: Test Example 4: herbicidal effect by soil treatment (Table 19, symbol N); format: in vivo, redroot pigweed (Amaranthus retroflexus); conditions: 320 g/ha
Procedure, shortened: as §1

[28] = system: barnyard grass; assay: Test Example 3: herbicidal effect by foliage application, Wagner pot (Table 18, symbol H); format: in vivo, barnyard grass (Echinochloa crus-galli); conditions: 320 g/ha
Procedure, shortened: as §4

[29] = system: wild oat; assay: Test Example 4: herbicidal effect by soil treatment (Table 19, symbol I); format: in vivo, wild oat (Avena fatua); conditions: 320 g/ha
Procedure, shortened: as §1

[30] = system: rice flat sedge; assay: Test Example 3: herbicidal effect by foliage application, Wagner pot (Table 18, symbol E); format: in vivo, rice flat sedge (Cyperus iria); conditions: 320 g/ha
Procedure, shortened: as §4

[31] = system: lambsquarters; assay: Test Example 5: herbicidal effect by foliage application, plastic box (Table 20, symbol O); format: in vivo, lambsquarters (Chenopodium album); conditions: foliage application, 320 g/ha, evaluated three weeks after application
Procedure, shortened: as §3

[32] = system: persian speedwell; assay: Test Example 4: herbicidal effect by soil treatment (Table 19, symbol R); format: in vivo, Persian speedwell (Veronica persica); conditions: 320 g/ha
Procedure, shortened: as §1

CCCC(=O)Oc1c(C)nn(C)c(=O)c1-c1c(-c2ccc3c(c2)OCCO3)sc2ccc(F)cc12 [2-093]
herbicidal effect rating, P: chickweed [1]: 4 (Herbicidal rate of 70% or more and less than 90%) | herbicidal effect rating, C: oval-leafed pondweed [2]: 5 (Herbicidal rate of 90% or more (almost completely withered)) | herbicidal effect rating, K: Italian ryegrass [3]: 0 (Herbicidal rate of 5% or less (almost no effect)) | herbicidal effect on I: wild oat [4]: 0 (Herbicidal rate of 5% or less (almost no effect)) | herbicidal effect on K: Italian ryegrass [5]: 0 (Herbicidal rate of 5% or less (almost no effect)) | herbicidal effect rating, F: southern crabgrass [6]: 3 (Herbicidal rate of 40% or more and less than 70%) | herbicidal effect rating, O: lambsquarters [7]: 5 (Herbicidal rate of 90% or more (almost completely withered)) | herbicidal effect on F: southern crabgrass [8]: 3 (Herbicidal rate of 40% or more and less than 70%) | herbicidal effect on R: persian speedwell [9]: 5 (Herbicidal rate of 90% or more (almost completely withered)) | herbicidal effect on G: green foxtail [10]: 3 (Herbicidal rate of 40% or more and less than 70%) | herbicidal effect on D (Chinese sprangletop), rating 0-5 [11]: 2 (Herbicidal rate of 20% or more and less than 40%) | herbicidal effect on P: chickweed [12]: 5 (Herbicidal rate of 90% or more (almost completely withered)) | herbicidal effect on L: windgrass [13]: 0 (Herbicidal rate of 5% or less (almost no effect)) | herbicidal effect on J: blackgrass [14]: 0 (Herbicidal rate of 5% or less (almost no effect)) | herbicidal effect on N: redroot pigweed [15]: 5 (Herbicidal rate of 90% or more (almost completely withered)) | herbicidal effect rating, B: Japanese bulrush [16]: 5 (Herbicidal rate of 90% or more (almost completely withered)) | herbicidal effect on Q: false cleavers [17]: 4 (Herbicidal rate of 70% or more and less than 90%) | herbicidal effect rating, H: barnyard grass [18]: 3 (Herbicidal rate of 40% or more and less than 70%) | herbicidal effect on M: velvetleaf [19]: 5 (Herbicidal rate of 90% or more (almost completely withered)) | herbicidal effect rating, M: velvetleaf [20]: 5 (Herbicidal rate of 90% or more (almost completely withered)) | herbicidal effect rating, G: green foxtail [21]: 3 (Herbicidal rate of 40% or more and less than 70%) | herbicidal effect rating, L: windgrass [22]: 0 (Herbicidal rate of 5% or less (almost no effect)) | herbicidal effect rating, Q: false cleavers [23]: 3 (Herbicidal rate of 40% or more and less than 70%) | herbicidal effect rating, A: late watergrass [24]: 3 (Herbicidal rate of 40% or more and less than 70%) | herbicidal effect on H: barnyard grass [25]: 3 (Herbicidal rate of 40% or more and less than 70%) | herbicidal effect rating, J: blackgrass [26]: 0 (Herbicidal rate of 5% or less (almost no effect)) | herbicidal effect rating, N: redroot pigweed [27]: 5 (Herbicidal rate of 90% or more (almost completely withered)) | herbicidal effect on H (barnyard grass), rating 0-5 [28]: 5 (Herbicidal rate of 90% or more (almost completely withered)) | herbicidal effect rating, I: wild oat [29]: 0 (Herbicidal rate of 5% or less (almost no effect)) | herbicidal effect on E (rice flat sedge), rating 0-5 [30]: 5 (Herbicidal rate of 90% or more (almost completely withered)) | herbicidal effect on O: lambsquarters [31]: 5 (Herbicidal rate of 90% or more (almost completely withered)) | herbicidal effect rating, R: persian speedwell [32]: 5 (Herbicidal rate of 90% or more (almost completely withered))

COc1ccccc1-c1sc2ccc(Cl)cc2c1-c1c(OC)c(C)nn(C)c1=O [Compound No. 2-102, 4-(5-chloro-2-(2-methoxyphenyl)benzo[b]thiophen-3-yl)-5-methoxy-2,6-dimethylpyridazin-3(2H)-one]
melting point: 174 to 175 °C
